Measurements as given in PMC7394005, “Assessing the Selectivity of FXR, LXRs, CAR, and RORγ Pharmaceutical Ligands With Reporter Cell Lines” (Frontiers in Pharmacology, 2020).

Tests used:
[1] = test system: HG5LN parental cell line; assay: Non-specific modulation of luciferase expression in HG5LN parental cell line; format: cell-based, human; details: HG5LN parental cells lacking Gal4-NRs; Figure S2
Procedure: (§1) HG5LN and HG5LN PXR cells have already been described ([Delfosse et al., 2015]). To characterize the specificity of chemicals for human FXR, LXRα, LXRβ, CAR and RORγ, we established in a similar manner HG5LN FXR, LXRα, LXRβ, CAR WT, CAR (APYLT) and RORγ reporter cell lines. HG5LN are HeLa cells stably transfected by the (GAL4RE)5-βGlob-Luc-SVNeo plasmid ([Seimandi et al., 2005]). These cells were stably transfected by pSG5-GAL4 (DBD)-NRs (LBD)-puromycin plasmid and selected in presence of 0.5 µg/ml puromycin. […] From each HG5LN NR cells, 5 to 10 clones were chosen for their ligand inducibility of luciferase expression. We noted that the basal activity in absence of ligand strongly differed among NRs. FXR, LXRs, and CAR APYLT had the lowest basal activities, whereas CAR and RORγ had the highest. The most inducible clones were expanded and rechecked for inducibility and aliquots were frozen at different passages. One clone per receptor was maintained in culture and used for ligand screening. HG5LN cells were cultured in Dulbecco’s modified Eagle’s medium (DMEM): Nutrient Mixture F-12 (DMEM/F-12) containing phenol red and 1 g/l glucose and supplemented with 5% fetal bovine serum, 100 units/ml of penicillin, 100 µg/ml of streptomycin and 1 mg/ml geneticin, in 5% CO2 humidified atmosphere at 37°C. Stably transfected cell lines derived from HG5LN cells were cultured in the same culture medium supplemented with 0.5 µg/ml puromycin.
(§2) Individual reporter cell lines were seeded at a density of 40,000 cells per well in 96-well white opaque tissue culture plates (Greiner CellStar) in Dulbecco’s Modified Eagle Medium: Nutrient Mixture F-12 (DMEM/F-12) without phenol red and 1 g/l glucose and supplemented with 5% stripped fetal bovine serum, 100 units/ml of penicillin, 100 µg/ml of streptomycin (test medium). Chemicals to be tested were added 24h later, and cells were incubated at 37°C for 16h. Experiments were performed in quadruplicates. At the end of the incubation period, culture medium was replaced with test medium containing 0.3 mM luciferin solution. Luciferase activity was measured for 2s in intact living cells after 10 min stabilization using a Micro Beta Wallac luminometer (PerkinElmer). EC50 values were calculated using GraphPad Prism (GraphPad Software Inc).
To evaluate the FXR, LXRα, LXRβ, PXR, CAR, and RORγ specificity of pharmaceutical chemicals, we established HG5LN reporter cell lines expressing human FXR, LXRα, LXRβ, CAR, CAR (+ APYLT), and RORγ. Then, we tested the agonistic/antagonistic potential of 22 commercially available pharmaceutical compounds ( Figure S1 ) on these cells and in the previously established PXR cell line ([Delfosse et al., 2015]). The 22 chemicals were first tested for non-specific modulation of luciferase expression on the HG5LN parental cell line, which contains the same reporter gene as HG5LN-GAL4-NRs cells, but lacks of Gal4-NRs. […] The basal (in absence of ligand) and the maximal (in presence of NR-specific full agonist) activities of HG5LN and the different HG5LN GAL4-NRs were measured. […] The expression of FXR induced the slight repression of basal transcription, while both LXRs and PXR had no effect, or just slightly activated the basal transcription ( Figure 1 ). Consequently, the baseline activities were normalized as percentage of maximal activity mediated by full agonists, as follows: 6% for FXR, 8% for LXRα, 9% for LXRβ, 19% for PXR ( Table 1 ). On the contrary, the basal activity was increased by the expression of CAR and RORγ. Due to the inherent constitutive activity, we determined this activity equal to 100% as the specific agonists were not able to reveal their transactivation potential alone, but they were able to reverse the inhibition caused by antagonists/reverse agonists. To characterize easily CAR agonists, we used cell line expressing a variant of CAR (CAR + APYLT) with reduced basal ([Auerbach et al., 2003]). […]

[2] = target: T1, human PXR (Homo sapiens, UniProt O75469); assay: HG5LN PXR reporter cell line, antagonist mode in presence of SR12813; format: cell-based; details: read-out: PXR (SR12813 300 nM) IC50; in presence of SR12813 300 nM; NE = No effect
T1 construct: The GAL4-NR chimeric cell lines provide uniform cellular model differing just in receptor LBDs; expressed in transfected cells; host or cells: HG5LN PXR (HeLa-derived; described in Delfosse et al., 2015)
T1 sequence (O75469 146-433 limits assumed): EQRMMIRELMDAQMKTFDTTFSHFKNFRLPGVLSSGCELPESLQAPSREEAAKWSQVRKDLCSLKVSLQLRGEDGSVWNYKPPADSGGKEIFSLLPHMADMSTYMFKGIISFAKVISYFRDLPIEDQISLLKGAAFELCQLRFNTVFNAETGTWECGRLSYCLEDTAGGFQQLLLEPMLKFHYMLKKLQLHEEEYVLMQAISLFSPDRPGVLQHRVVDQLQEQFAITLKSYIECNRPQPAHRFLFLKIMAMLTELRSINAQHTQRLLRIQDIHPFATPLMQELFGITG
Procedure: as §1, with “To” for “HG5LN and HG5LN PXR cells have already been described ([Delfosse et al., 2015]). To”, “HG5LN are HeLa cells stably transfected by the (GAL4RE)5-βGlob-Luc-SVNeo plasmid ([Seimandi et al., 2005]).” left out, “We noted that the basal activity in absence of ligand strongly differed among NRs. FXR, LXRs, and CAR APYLT had the lowest basal activities, whereas CAR and RORγ had the highest.” left out
as §2
Chemicals tested for agonism on FXR, LXRs, CAR (+ APYLT), PXR, and antagonism on CAR and RORγ were tested alone, without addition of any other ligand.
In the transactivation assay, each compound was tested at various concentrations in three independent experiments at least. For each experiment, tests were performed in quadruplicates for each concentration, and data are expressed by means values with standard deviations. Individual agonist dose–response curves, in the absence and presence of antagonist, were fitted using the sigmoid dose-response function of a graphics and statistics software program (GraphPad Prism, version 5.0). EC50 (effective concentration for half-maximal luciferase activity) and IC50 (half-maximal inhibitory concentration) values were calculated from equations used to fit the data in this graphic software. Transactivation data are presented as EC50 and IC50 values for each compound tested. To analyze significances, we compared individual compound treatments with controls using one-way analysis of variance (ANOVA) with the help of GraphPad Prism software.

IC50 [2] [µM]	Compound	Nonspecific activation of luciferase expression in HG5LN parental cell line [1]	Toxicity (non-specific decrease of luciferase expression) in HG5LN parental cell line [1]
–	Clc1ccc(-c2nc3sccn3c2/C=N/OCc2ccc(Cl)c(Cl)c2)cc1 [CITCO]	significant nonspecific activation	–
–	Clc1ccccc1C(c1ccccc1)(c1ccccc1)n1ccnc1 [Clotrimazole, clotrimazole]	–	most toxic
> 10	COc1cccc(Cn2cc(C(=O)Nc3ccc(C)c(S(=O)(=O)N4CCOCC4)c3)c(-c3ccc(C)cc3)n2)c1 [DY268]	significant nonspecific activation	–
> 10	COC(=O)/C=C/c1cccc(N(Cc2ccc(-c3ccc(N(C)C)cc3)cc2)C(=O)C2CCCCC2)c1 [Feraxamine]	–	–
–	Cc1cc(C)c(S(=O)(=O)N(Cc2ccc(-c3cccc(S(C)(=O)=O)c3)cc2)Cc2ccc(C(F)(F)F)o2)c(C)c1 [GSK2033]	significant nonspecific activation	–
> 10	CC(C)c1onc(-c2c(Cl)cccc2Cl)c1COc1ccc(/C=C/c2cccc(C(=O)O)c2)c(Cl)c1 [GW4064]	significant nonspecific activation	–
> 10	Cc1oc2ccccc2c1CNC(=O)NCc1cccs1 [S07662]	–	–
> 10	CC(=O)Nc1nc(C)c(S(=O)(=O)Nc2ccc(C(O)(C(F)(F)F)C(F)(F)F)cc2)s1 [SR1001]	–	–
–	Fc1ccc(-c2c3cccc(C(F)(F)F)c3nn2Cc2ccc(F)cc2Cl)cc1 [WAY252623]	significant nonspecific activation	–
–	SPA70	–	most toxic

Compound	IC50 [2] [µM]	Nonspecific activation of luciferase expression in HG5LN parental cell line [1]	Toxicity (non-specific decrease of luciferase expression) in HG5LN parental cell line [1]
O=C(Nc1ccc(C(O)(C(F)(F)F)C(F)(F)F)cc1)c1ccc(C(F)(F)F)cc1 [SR1078]	> 10	–	–
